Experimental data taken from patent publication US12187709B2 (Genentech, Inc., priority 2021, dated 2025).

Assays:
c-Cbl = c-Cbl (Homo sapiens (Human), UniProt P22681); assay: C-Cbl LCK Ub TR-FRET assay (C-cbl Lck HTRF); format: biochemical
Summary of the method: (§1)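 After the ubiquitination reaction, detection mixture was added and plates incubated 20 min at room temperature before reading. IC50 values were calculated with wells lacking LCK as the low control and DMSO as the high control.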

[1] = target: Human Cbl-b (residues 40-426) (Homo sapiens (Human), UniProt Q13191); assay: Cbl-b SPR assay; format: binding; settings: for Fold of selectivity: C-cbl SPR Kd vs Cbl-b SPR Kd; for Kd: SPR, 20° C.
Summary of the method: (§2)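 Values derive from a 1:1 model fitted to multicycle kinetics on captured protein (1300-1500 RU), using six 2-fold concentrations, 60 s contact and dissociation of 120-1200 s. In the chaser format, kd comes from a single-exponential fit of % site occupancy over time.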

Cbl-b = Cbl-b (Homo sapiens (Human), UniProt Q13191); assay: Cbl-b LCK Ub TR-FRET assay (Cbl-b Lck HTRF); format: biochemical; settings: for IC50: Cbl-b LCK Ub TR-FRET; for fold-selectivity (Cbl-b over C-cbl): ratio C-cbl Lck HTRF IC50 / Cbl-b Lck HTRF IC50
Summary of the method: as §1

c-Cbl (residues 47-435) = c-Cbl (residues 47-435) (Homo sapiens (Human), UniProt P22681); assay: c-Cbl SPR assay; format: binding; settings: 20° C.
Summary of the method: as §2

Sequence of c-Cbl (P22681 47-435): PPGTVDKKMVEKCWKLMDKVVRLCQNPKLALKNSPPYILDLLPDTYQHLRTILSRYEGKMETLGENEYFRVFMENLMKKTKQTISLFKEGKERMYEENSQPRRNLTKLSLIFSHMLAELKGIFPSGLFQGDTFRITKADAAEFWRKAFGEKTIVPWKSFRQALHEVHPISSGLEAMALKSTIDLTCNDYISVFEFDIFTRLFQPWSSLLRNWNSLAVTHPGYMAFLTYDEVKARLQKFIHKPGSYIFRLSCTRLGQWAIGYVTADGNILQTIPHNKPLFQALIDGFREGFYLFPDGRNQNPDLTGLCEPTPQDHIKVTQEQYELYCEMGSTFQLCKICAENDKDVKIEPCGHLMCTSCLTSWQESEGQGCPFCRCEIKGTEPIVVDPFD
Sequence of c-Cbl (residues 47-435) (P22681 47-435): as above
Sequence of Human Cbl-b (residues 40-426) (Q13191 40-426): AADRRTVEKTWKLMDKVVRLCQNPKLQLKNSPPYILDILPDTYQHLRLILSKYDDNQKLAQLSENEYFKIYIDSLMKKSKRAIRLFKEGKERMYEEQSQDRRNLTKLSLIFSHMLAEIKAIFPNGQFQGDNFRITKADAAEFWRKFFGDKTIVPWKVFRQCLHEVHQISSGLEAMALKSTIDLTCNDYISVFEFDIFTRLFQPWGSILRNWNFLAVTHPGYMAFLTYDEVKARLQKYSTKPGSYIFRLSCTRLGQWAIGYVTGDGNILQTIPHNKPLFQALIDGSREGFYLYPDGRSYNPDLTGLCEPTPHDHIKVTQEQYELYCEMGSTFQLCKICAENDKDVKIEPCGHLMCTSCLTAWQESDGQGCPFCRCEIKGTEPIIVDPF
Sequence of Cbl-b (Q13191 40-426): as above

SMILES | IC50 (c-Cbl) | Fold of selectivity [1] | Kd [1] | IC50 (Cbl-b) | fold-selectivity (Cbl-b over C-cbl) (Cbl-b) | Kd (c-Cbl (residues 47-435))
CO[C@H]1C[C@@](c2cc(OC3CCCC3)cc(N3Cc4c(cc(CNC5(C)CCC5)cc4C(F)(F)F)C3=O)c2)(c2nncn2C)C1 [Compound 208, 2-(3-(cyclopentyloxy)-5-((1s,3s)-3-methoxy-1-(4-methyl-4H-1,2,4-triazol-3-yl)cyclobutyl)phenyl)-6-(((1-methylcyclobutyl)amino)methyl)-4-(trifluoromethyl)isoindolin-1-one] | 2200 nM | 6.0× | 250 nM | 450 nM | 4.8x | 1500 nM
CO[C@H]1C[C@](c2cc(NC3CCCC3)cc(N3Cc4c(cc(CNC5(C)CCC5)cc4C(F)(F)F)C3=O)c2)(c2nncn2C)C1 [Compound 209, 2-(3-(cyclopentylamino)-5-((1r,3r)-3-methoxy-1-(4-methyl-4H-1,2,4-triazol-3-yl)cyclobutyl)phenyl)-6-(((1-methylcyclobutyl)amino)methyl)-4-(trifluoromethyl)isoindolin-1-one] | 320 nM | 12× | 17 nM | 44 nM | 7.2x | 200 nM
CCNc1cc(N2Cc3c(cc(CNC4(C)CCC4)cc3C(F)(F)F)C2=O)cc([C@]2(c3nncn3C)C[C@H](OC)C2)c1 [Compound 210, 2-(3-(ethylamino)-5-((1r,3r)-3-methoxy-1-(4-methyl-4H-1,2,4-triazol-3-yl)cyclobutyl)phenyl)-6-(((1-methylcyclobutyl)amino)methyl)-4-(trifluoromethyl)isoindolin-1-one] | 12 nM | 4.7× | 1.5 nM | 9 nM | 1.3x | 6.7 nM
CO[C@H]1C[C@](c2cc(NC3CCC3)cc(N3Cc4c(cc(CNC5(C)CCC5)cc4C(F)(F)F)C3=O)c2)(c2nncn2C)C1 [Compound 211, 2-(3-(cyclobutylamino)-5-((1r,3r)-3-methoxy-1-(4-methyl-4H-1,2,4-triazol-3-yl)cyclobutyl)phenyl)-6-(((1-methylcyclobutyl)amino)methyl)-4-(trifluoromethyl)isoindolin-1-one] | 60 nM | 14× | 3.5 nM | 15 nM | 4.0x | 49 nM
CO[C@H]1C[C@](c2cc(OC3CCCC3)cc(N3Cc4c(cc(CNC5(C)CCC5)cc4C(F)(F)F)C3=O)c2)(c2nncn2C)C1 [Compound 212, 2-(3-(cyclopentyloxy)-5-((1r,3r)-3-methoxy-1-(4-methyl-4H-1,2,4-triazol-3-yl)cyclobutyl)phenyl)-6-(((1-methylcyclobutyl)amino)methyl)-4-(trifluoromethyl)isoindolin-1-one] | 390 nM | 4.8× | 110 nM | 150 nM | 2.6x | 530 nM
C=C[C@@H](C)Oc1cc(N2Cc3c(cc(CNC4(C)CCC4)cc3C(F)(F)F)C2=O)cc([C@]2(c3nncn3C)C[C@@H](OC)C2)c1 [Compound 213, 2-(3-((R)-but-3-en-2-yloxy)-5-((1s,3S)-3-methoxy-1-(4-methyl-4H-1,2,4-triazol-3-yl)cyclobutyl)phenyl)-6-(((1-methylcyclobutyl)amino)methyl)-4-(trifluoromethyl)isoindolin-1-one] | 440 nM | 1.8× | 160 nM | 240 nM | 1.9x | 300 nM
CO[C@H]1C[C@](c2cc(NC3CC3)cc(N3Cc4c(cc(CNC5(C)CCC5)cc4C(F)(F)F)C3=O)c2)(c2nncn2C)C1 [Compound 214, 2-(3-(cyclopropylamino)-5-((1r,3r)-3-methoxy-1-(4-methyl-4H-1,2,4-triazol-3-yl)cyclobutyl)phenyl)-6-(((1-methylcyclobutyl)amino)methyl)-4-(trifluoromethyl)isoindolin-1-one] | 9 nM | 4.7× | 0.9 nM | 9.3 nM | 0.97x | 4.2 nM
CO[C@H]1C[C@](c2cc(NC(C)C)cc(N3Cc4c(cc(CNC5(C)CCC5)cc4C(F)(F)F)C3=O)c2)(c2nncn2C)C1 [Compound 215, 2-(3-(isopropylamino)-5-((1r,3r)-3-methoxy-1-(4-methyl-4H-1,2,4-triazol-3-yl)cyclobutyl)phenyl)-6-(((1-methylcyclobutyl)amino)methyl)-4-(trifluoromethyl)isoindolin-1-one] | 12 nM | 4.1× | 1.7 nM | 9.4 nM | 1.3x | 7 nM

Second part, the molecule after the results:

IC50 (c-Cbl) | Fold of selectivity [1] | Kd [1] | IC50 (Cbl-b) | fold-selectivity (Cbl-b over C-cbl) (Cbl-b) | Kd (c-Cbl (residues 47-435)) | SMILES
61 nM | 11× | 4.7 nM | 14 nM | 4.2x | 51 nM | CO[C@H]1C[C@](c2cc(NCCC#N)cc(N3Cc4c(cc(CNC5(C)CCC5)cc4C(F)(F)F)C3=O)c2)(c2nncn2C)C1 [Compound 216, 3-((3-((1r,3r)-3-methoxy-1-(4-methyl-4H-1,2,4-triazol-3-yl)cyclobutyl)-5-(6-(((1-methylcyclobutyl)amino)methyl)-1-oxo-4-(trifluoromethyl)isoindolin-2-yl)phenyl)amino)propanenitrile]
97 nM | 13× | 7.5 nM | 18 nM | 5.5x | 91 nM | CO[C@H]1C[C@@](c2cc(NC3CCC3)cc(N3Cc4c(cc(CNC5(C)CCC5)cc4C(F)(F)F)C3=O)c2)(c2nncn2C)C1 [Compound 217, 2-(3-(cyclobutylamino)-5-((1s,3s)-3-methoxy-1-(4-methyl-4H-1,2,4-triazol-3-yl)cyclobutyl)phenyl)-6-(((1-methylcyclobutyl)amino)methyl)-4-(trifluoromethyl)isoindolin-1-one]
810 nM | 10× | 77 nM | 81 nM | 10x | 770 nM | CO[C@H]1C[C@@](c2cc(NC3CCCC3)cc(N3Cc4c(cc(CNC5(C)CCC5)cc4C(F)(F)F)C3=O)c2)(c2nncn2C)C1 [Compound 218, 2-(3-(cyclopentylamino)-5-((1s,3s)-3-methoxy-1-(4-methyl-4H-1,2,4-triazol-3-yl)cyclobutyl)phenyl)-6-(((1-methylcyclobutyl)amino)methyl)-4-(trifluoromethyl)isoindolin-1-one]
270 nM | 13× | 14 nM | 64 nM | 4.2x | 200 nM | CC(C)O[C@H]1C[C@@](c2cccc(N3Cc4c(cc(CNC5(C)CCC5)cc4C(F)(F)F)C3=O)c2)(c2nncn2C)C1 [Compound 222, 2-(3-((1s,3s)-3-isopropoxy-1-(4-methyl-4H-1,2,4-triazol-3-yl)cyclobutyl)phenyl)-6-(((1-methylcyclobutyl)amino)methyl)-4-(trifluoromethyl)isoindolin-1-one]
21 nM | 7.5× | 2.9 nM | 15 nM | 1.4x | 22 nM | CO[C@H]1C[C@@](c2cc(NC(C)C)cc(N3Cc4c(cc(CNC5(C)CCC5)cc4C(F)(F)F)C3=O)c2)(c2nncn2C)C1 [Compound 223, 2-(3-(isopropylamino)-5-((1s,3s)-3-methoxy-1-(4-methyl-4H-1,2,4-triazol-3-yl)cyclobutyl)phenyl)-6-(((1-methylcyclobutyl)amino)methyl)-4-(trifluoromethyl)isoindolin-1-one]
100 nM | 10× | 9.5 nM | 20 nM | 5.0x | 100 nM | CO[C@H]1C[C@@](c2cc(NCCC#N)cc(N3Cc4c(cc(CNC5(C)CCC5)cc4C(F)(F)F)C3=O)c2)(c2nncn2C)C1 [Compound 224]
10 nM | 3.2× | 1.3 nM | 11 nM | 0.99x | 4.2 nM | CO[C@H]1C[C@](c2cc(C3CC3)cc(N3Cc4c(cc(CNC5(C)CCC5)cc4C(F)(F)F)C3=O)c2)(c2nncn2C)C1 [Compound 226, 2-(3-cyclopropyl-5-((1r,3r)-3-methoxy-1-(4-methyl-4H-1,2,4-triazol-3-yl)cyclobutyl)phenyl)-6-(((1-methylcyclobutyl)amino)methyl)-4-(trifluoromethyl)isoindolin-1-one]
16 nM | 6.5× | 1.7 nM | 10 nM | 1.6x | 11 nM | CCNc1cc(N2Cc3c(cc(CNC4(C)CCC4)cc3C(F)(F)F)C2=O)cc([C@]2(c3nncn3C)C[C@@H](OC)C2)c1 [Compound 227, 2-(3-(ethylamino)-5-((1s,3s)-3-methoxy-1-(4-methyl-4H-1,2,4-triazol-3-yl)cyclobutyl)phenyl)-6-(((1-methylcyclobutyl)amino)methyl)-4-(trifluoromethyl)isoindolin-1-one]
